Reference: article PMC2828546, “Screening-based discovery of drug-like O-GlcNAcase inhibitor scaffolds” (Febs Letters, 2010)
Several values for one entry are separate records, joined by “and”; a condition that tells them apart may be missing. Equal values may be shown once. Entries after “also recorded” stand apart in the source; their conditions may differ. Read-outs that look alike come from different tables or passages of the source.

Assays:
CpOGA [1] = target: T1, CpOGA (Clostridium perfringens, UniProt Q0TR53); assay: biochemical; conditions: read-out: inhibition of CpOGA in the screen
T1 sequence (Q0TR53 31-624 limits assumed): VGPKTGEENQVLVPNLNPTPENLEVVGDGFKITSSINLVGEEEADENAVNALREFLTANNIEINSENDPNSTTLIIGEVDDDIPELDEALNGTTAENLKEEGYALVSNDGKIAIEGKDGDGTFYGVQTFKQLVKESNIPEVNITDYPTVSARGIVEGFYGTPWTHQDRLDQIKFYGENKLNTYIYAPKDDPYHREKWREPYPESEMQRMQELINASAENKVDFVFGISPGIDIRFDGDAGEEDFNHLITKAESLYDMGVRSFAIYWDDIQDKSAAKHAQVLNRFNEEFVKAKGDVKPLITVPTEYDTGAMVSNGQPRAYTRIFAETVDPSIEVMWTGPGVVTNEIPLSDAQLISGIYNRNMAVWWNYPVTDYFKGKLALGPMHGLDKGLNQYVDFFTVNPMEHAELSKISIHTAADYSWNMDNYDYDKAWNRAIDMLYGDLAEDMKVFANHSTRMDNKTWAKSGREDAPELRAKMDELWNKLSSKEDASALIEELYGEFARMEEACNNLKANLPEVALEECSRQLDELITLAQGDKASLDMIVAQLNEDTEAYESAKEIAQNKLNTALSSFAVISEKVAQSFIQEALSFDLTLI

hOGA [2] = target: T2, hOGA (Homo sapiens, UniProt O60502); assay: hOGA inhibition, fluorogenic 4MU-NAG substrate; type: biochemical; conditions: for IC50: 80 μM 4MU-GlcNAc (Km), 60 min, pH 5.7; for hOGA BEI (Binding Efficiency Index): BEI = -log(Ki)/M, M in kDa, Ki from IC50 by Cheng-Prusoff; for Selectivity (HexA/B/hOGA): ratio of HexA/B to hOGA inhibition constants
T2 construct: made in house
T2 sequence (O60502 1-916): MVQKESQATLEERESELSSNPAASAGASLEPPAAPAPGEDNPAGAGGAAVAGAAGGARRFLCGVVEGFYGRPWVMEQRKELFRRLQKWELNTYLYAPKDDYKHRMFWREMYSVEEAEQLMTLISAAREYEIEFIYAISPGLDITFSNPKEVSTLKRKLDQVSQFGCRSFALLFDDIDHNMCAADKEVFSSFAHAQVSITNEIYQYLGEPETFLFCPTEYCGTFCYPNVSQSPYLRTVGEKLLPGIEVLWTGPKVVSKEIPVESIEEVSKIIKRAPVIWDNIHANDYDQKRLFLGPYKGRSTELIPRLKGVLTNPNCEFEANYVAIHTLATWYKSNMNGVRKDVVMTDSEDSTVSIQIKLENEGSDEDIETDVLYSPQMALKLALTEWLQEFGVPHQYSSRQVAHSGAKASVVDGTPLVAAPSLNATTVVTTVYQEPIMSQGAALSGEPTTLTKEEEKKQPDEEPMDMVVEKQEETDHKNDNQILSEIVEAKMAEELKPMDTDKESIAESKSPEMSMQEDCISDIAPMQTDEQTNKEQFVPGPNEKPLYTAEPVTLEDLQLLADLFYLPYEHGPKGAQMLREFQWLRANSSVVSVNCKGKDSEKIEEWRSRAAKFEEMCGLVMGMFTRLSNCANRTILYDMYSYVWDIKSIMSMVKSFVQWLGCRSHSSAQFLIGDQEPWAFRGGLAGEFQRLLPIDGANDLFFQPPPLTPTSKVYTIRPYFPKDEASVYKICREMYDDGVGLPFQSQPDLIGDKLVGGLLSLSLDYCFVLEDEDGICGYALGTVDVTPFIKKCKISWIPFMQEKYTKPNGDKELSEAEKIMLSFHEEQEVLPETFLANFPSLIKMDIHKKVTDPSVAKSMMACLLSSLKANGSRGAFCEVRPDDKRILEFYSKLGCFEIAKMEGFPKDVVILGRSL

human hexosaminidase A/B = assay: HexA/B inhibition, fluorogenic 4MU-NAG substrate; type: biochemical; conditions: 230 μM substrate (Km), 15 min, pH 5.7
Description: Further kinetic experiments to determine the mode of inhibition were carried out according to the procedure described previously. […] IC50 measurements with CpOGA, hOGA and a mixture of human hexosaminidase A/B activities (Sigma A6152) against the compounds were performed using the fluorogenic 4MU-NAG substrate and standard reaction mixtures as described previously with some changes [[39,31,40]]. Standard reaction mixtures (50 μl) contained 0.2 nM CpOGA, 2 nM hOGA or 50 μ units unit/ml HexA/B in McIlvaine buffer (0.2 M Na2HPO4 mixed with 0.1 M citric acid to pH 5.7) supplemented with 0.1 mg/ml BSA. […] The reactions were run at room temperature for 7 min (CpOGA), 60 min (hOGA) or 15 min (HexA/B).

CpOGA [3] = target: T1, CpOGA; type: biochemical
CpOGA [4] = target: T1, CpOGA; assay: biochemical
hOGA [5] = target: T2, hOGA; conditions: cited from earlier work
CpOGA [6] = target: T1, CpOGA; conditions: read-out: CpOGA Ki; cited from earlier work
CpOGA [7] = target: T1, CpOGA; conditions: read-out: CpOGA IC50; cited from earlier work

`c1ccc(CNc2ncnc3nc[nH]c23)cc1` [6-benzylaminopurine] showed an inhibition at 30.2 µM (CpOGA [1]) of 30%.
In the case of `CC(=O)Nc1nnc(S(N)(=O)=O)s1` [Acetazolamide, acetazolamide], the IC50 (hOGA [2]; 2 nM hOGA, read-out: hOGA IC50) is reported as 47 ± 0.1 µM.
In the case of `O=C1CC2(CCCC2)CC(=O)N1CCCCN1CCN(c2ncccn2)CC1` [Buspirone, buspirone], the IC50 (hOGA [2]; 2 nM hOGA, read-out: hOGA IC50) is reported as 25 ± 0.1 µM and the IC50 (human hexosaminidase A/B) is reported as 47 ± 3 µM.
For `Cn1c(=O)c2c(ncn2CC(O)CO)n(C)c1=O` (centres unmarked) [Diprophylline, diprophylline], the “inhibition mode against CpOGA” value (CpOGA [3]) was “compete for binding to the same CpOGA active site; also recorded: competitive inhibitor”, the IC50 (CpOGA [4]) was 60 ± 10 µM and the IC50 (hOGA [2]; 2 nM hOGA, read-out: hOGA IC50) was over 100 µM. The “hOGA BEI (Binding Efficiency Index)” value (hOGA [2]) was 16, the “Selectivity (HexA/B/hOGA)” value (hOGA [2]) was 1.6 and the IC50 (human hexosaminidase A/B) was 200 ± 30 µM.
For `CC(=O)N1CCN(c2ccc(OCC3COC(Cn4ccnc4)(c4ccc(Cl)cc4Cl)O3)cc2)CC1` (centres unmarked) [Ketoconazole, ketoconazole], the “inhibition mode against CpOGA” value (CpOGA [3]) was “compete for binding to the same CpOGA active site”, the IC50 (hOGA [2]; 2 nM hOGA, read-out: hOGA IC50) was 4 µM and 4.3 µM and the IC50 (human hexosaminidase A/B) was 11 ± 1 µM.
In the case of `CCCC1=N[C@@H]2[C@@H](O)[C@H](O)[C@@H](CO)O[C@@H]2S1` [NButGT], the “selectivity for hOGA” value (hOGA [5]; thiazoline derivative, selectivity for hOGA) is listed as 600 fold.
`CNc1ncnc2nc[nH]c12` [N^6-methyladenine] showed an IC50 (hOGA [2]; 2 nM hOGA, read-out: hOGA IC50) of 4 ± 0.3 µM and an IC50 (human hexosaminidase A/B) of 300 µM.
In the case of `CC(=O)N[C@H]1/C(=N/OC(=O)Nc2ccccc2)O[C@H](CO)[C@@H](O)[C@@H]1O` [PUGNAc], the Ki (CpOGA [6]) is given as 0.005 µM.
With `CC1CCC(NC(=O)N(CCCl)N=O)CC1` (centres unmarked) [Semustine, semustine] the “inhibition mode against CpOGA” value (CpOGA [3]) was “compete for binding to the same CpOGA active site”, the “hOGA BEI (Binding Efficiency Index)” value (hOGA [2]) was 16 and the IC50 (hOGA [2]; hOGA IC50, 2 nM hOGA) was over 100 µM. For the same molecule, the “Selectivity (HexA/B/hOGA)” value (hOGA [2]) was 9 and the IC50 (human hexosaminidase A/B) was 2500 µM.
In the case of `CN(N=O)C(=O)N[C@H]1C(O)O[C@H](CO)[C@@H](O)[C@@H]1O` (some centres unmarked) [Streptozotocin, streptozotocin], the IC50 (CpOGA [7]) is given as 30 µM, the “hOGA BEI (Binding Efficiency Index)” value (hOGA [2]) is given as 11 and the “Selectivity (HexA/B/hOGA)” value (hOGA [2]) is given as 30. The Ki (hOGA [5]; Ki value from literature, read-out: hOGA Ki (printed in hOGA IC50 column)) was 1500 µM.
